Assays:
Assay type in all cases: cell-based
hGPR17L-V103M [1] = biological target: T1, hGPR17L-V103M (Homo sapiens, UniProt Q13304, V103M); assay: GloSensor cAMP assay, inhibition of forskolin-stimulated cAMP
T1 construct: expressed in transfected cells; host or cells: HEK293 (ATCC CRL-1573), transient transfection
Procedure: (§1) HEK293 cells were seeded at 20,000 cells/well into white, opaque 96-well plates. The next day, cells were transiently cotransfected with pGloSensor-cAMP-22F and pcDNA3-HA-hGPR17L or pcDNA3-HA-hGPR17L-variants using lipofectamine 3000. Twenty-four hours posttransfection, growth medium and transfection mix were aspirated and replaced with 100 μl/well equilibration medium (2% Promega GloSensor cAMP reagent [E1291; Promega Corporation] in CO2-independent medium) and incubated at room temperature for 2 h. Baseline luminescence was read on a Molecular Devices SpectraMax iD5 plate reader (Molecular Devices) at ambient room temperature for 8 min. Subsequently, 10 μl/well MDL29,951 diluted in assay buffer (HBSS, 20 mM HEPES, pH 7.2) was added and luminescence was read for 10 min. Finally, 10 μl/well forskolin (1099; Tocris Bioscience) diluted in assay buffer was added and luminescence was measured for 20–30 min. The average luminescence value for the 14–20 min time points for each well was normalized to their average baseline luminescence value and expressed as a percentage of the forskolin-stimulated response within each transfection condition.

hGPR17L-G136S = biological target: T2, hGPR17L-G136S (Homo sapiens, UniProt Q13304, G136S); assay: as above
T2 construct: expressed in transfected cells; host or cells: HEK293 (ATCC CRL-1573), transient transfection
T2 sequence (Q13304 whole entry G136S): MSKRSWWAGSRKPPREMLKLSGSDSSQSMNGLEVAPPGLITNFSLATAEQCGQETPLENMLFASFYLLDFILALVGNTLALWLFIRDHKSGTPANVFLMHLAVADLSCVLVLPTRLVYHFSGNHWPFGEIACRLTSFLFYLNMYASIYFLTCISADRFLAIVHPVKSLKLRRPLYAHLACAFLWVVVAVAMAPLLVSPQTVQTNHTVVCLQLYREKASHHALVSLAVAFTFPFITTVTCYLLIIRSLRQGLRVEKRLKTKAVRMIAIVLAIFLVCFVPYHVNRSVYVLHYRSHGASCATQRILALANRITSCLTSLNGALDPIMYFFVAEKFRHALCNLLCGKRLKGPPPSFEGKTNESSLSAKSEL
Procedure: as §1

hGPR17L-R248Q = biological target: T3, hGPR17L-R248Q (Homo sapiens, UniProt Q13304, R248Q); assay: as above
T3 construct: expressed in transfected cells; host or cells: HEK293 (ATCC CRL-1573), transient transfection
T3 sequence (Q13304 whole entry R248Q): as the sequence (Q13304 whole entry G136S) above, with S136G, R248Q counted along it
Procedure: as §1

hGPR17L-R301H [2] = biological target: T4, hGPR17L-R301H (Homo sapiens, UniProt Q13304, R301H); assay: as above
T4 construct: expressed in transfected cells; host or cells: HEK293 (ATCC CRL-1573)
T4 sequence (Q13304 whole entry R301H): as the sequence (Q13304 whole entry G136S) above, with S136G, R301H counted along it
Procedure: as §1

hGPR17L-D105N = biological target: T5, hGPR17L-D105N (Homo sapiens, UniProt Q13304, D105N); assay: as above
T5 construct: expressed in transfected cells; host or cells: HEK293 (ATCC CRL-1573), transient transfection
T5 sequence (Q13304 whole entry D105N): as the sequence (Q13304 whole entry G136S) above, with D105N, S136G counted along it
Procedure: as §1

hGPR17L-WT = biological target: T6, hGPR17L-WT (Homo sapiens, UniProt Q13304); assay: as above
T6 construct: expressed in transfected cells; host or cells: HEK293 (ATCC CRL-1573), transient transfection of pcDNA3-HA-hGPR17L
T6 sequence (Q13304 whole entry): as the sequence (Q13304 whole entry G136S) above, with S136G counted along it
Procedure: as §1

hGPR17L-G354V = biological target: T7, hGPR17L-G354V (Homo sapiens, UniProt Q13304, G354V); assay: as above
T7 construct: expressed in transfected cells; host or cells: HEK293 (ATCC CRL-1573)
T7 sequence (Q13304 whole entry G354V): as the sequence (Q13304 whole entry G136S) above, with S136G, G354V counted along it
Procedure: as §1

hGPR17L-V96M = biological target: T8, hGPR17L-V96M (Homo sapiens, UniProt Q13304, V96M); assay: as above
T8 construct: expressed in transfected cells; host or cells: HEK293 (ATCC CRL-1573), transient transfection
T8 sequence (Q13304 whole entry V96M): as the sequence (Q13304 whole entry G136S) above, with V96M, S136G counted along it
Procedure: as §1

hGPR17L-A131T = biological target: T9, hGPR17L-A131T (Homo sapiens, UniProt Q13304, A131T); assay: as above
T9 construct: expressed in transfected cells; host or cells: HEK293 (ATCC CRL-1573), transient transfection
T9 sequence (Q13304 whole entry A131T): as the sequence (Q13304 whole entry G136S) above, with A131T, S136G counted along it
Procedure: as §1

hGPR17L-F43L = biological target: T10, hGPR17L-F43L (Homo sapiens, UniProt Q13304, F43L); assay: as above
T10 construct: expressed in transfected cells; host or cells: HEK293 (ATCC CRL-1573), transient transfection
T10 sequence (Q13304 whole entry F43L): as the sequence (Q13304 whole entry G136S) above, with F43L, S136G counted along it
Procedure: as §1

hGPR17L-V103M [3] = biological target: T1, hGPR17L-V103M; assay: GloSensor stimulatory cAMP assay with pertussis toxin pretreatment
Procedure: (§2) For agonist-mediated stimulatory cAMP assays, HEK293 cells were seeded and transfected as noted above. Cells were treated with 100 ng/ml pertussis toxin overnight (Sigma-Aldrich P2980). Twenty-four hours posttransfection, growth medium and transfection mix were aspirated and replaced with 100 μl/well equilibration medium (2% Promega GloSensor cAMP reagent [E1291; Promega Corporation] in CO2-independent medium) containing 100 ng/ml pertussis toxin and incubated at room temperature for 2 h. Baseline luminescence was read every 2 min on a Molecular Devices SpectraMax iD5 plate reader (Molecular Devices) at ambient room temperature for 8 min. Subsequently, 10 μl/well MDL29,951 diluted in assay buffer (HBSS, 20 mM HEPES, pH 7.2) was added and luminescence was read every 2 min for 16 min. Within each well, the luminescence values for each time point were normalized to their average baseline luminescence values. The average luminescence values for the time points between 8 and 16 min after MDL29,951 addition were expressed as a percentage of the maximum response observed for hGPR17L-WT.

hGPR17L-R301H [4] = biological target: T4, hGPR17L-R301H; assay: as above
Procedure: as §2

[5] = HEK293, inhibition of 3 μM forskolin-stimulated cAMP
[6] = read-out: cAMP IC50, HEK293, inhibition of 3 μM forskolin-stimulated cAMP
[7] = read-out: Stimulatory cAMP EC50

T1 sequence (Q13304 whole entry V103M): as the sequence (Q13304 whole entry G136S) above, with V103M, S136G counted along it

O=C(O)CCc1c(C(=O)O)[nH]c2cc(Cl)cc(Cl)c12 [MDL29,951]
cAMP Efficacy (% inhibition) (hGPR17L-V103M [1]; HEK293, 3 μM forskolin): 40 ± 1.3 % inhibition | cAMP 10 μM MDL +3 μM FSK (% of FSK) (hGPR17L-V103M [1]; HEK293, 10 μM MDL29,951): 81 ± 4.0 % of FSK | cAMP 100 μM MDL +3 μM FSK (% of FSK) (hGPR17L-V103M [1]; HEK293, 100 μM MDL29,951): 101 ± 4.0 % of FSK | cAMP pIC50 ± SEM (hGPR17L-V103M [1]; [5]): 9.24 ± 0.41 | IC50 (hGPR17L-V103M [1]; [6]): 0.57 nM | fold less potent for inhibition of forskolin-stimulated cAMP relative to hGPR17L-WT (hGPR17L-G136S): approximately 400 fold | cAMP Efficacy (% inhibition) (hGPR17L-G136S; HEK293, 3 μM forskolin): 39 ± 2.3 % inhibition | cAMP 10 μM MDL +3 μM FSK (% of FSK) (hGPR17L-G136S; HEK293, 10 μM MDL29,951): 65 ± 5.0 % of FSK | cAMP 100 μM MDL +3 μM FSK (% of FSK) (hGPR17L-G136S; HEK293, 100 μM MDL29,951): 60 ± 3.4 % of FSK | cAMP pIC50 ± SEM (hGPR17L-G136S; [5]): 5.89 ± 0.30 | IC50 (hGPR17L-G136S; [6]): 1300 nM | cAMP Efficacy (% inhibition) (hGPR17L-R248Q; HEK293, 3 μM forskolin): 41 ± 3.9 % inhibition | cAMP 10 μM MDL +3 μM FSK (% of FSK) (hGPR17L-R248Q; HEK293, 10 μM MDL29,951): 84 ± 5.5 % of FSK | cAMP 100 μM MDL +3 μM FSK (% of FSK) (hGPR17L-R248Q; HEK293, 100 μM MDL29,951): 98 ± 6.7 % of FSK | cAMP pIC50 ± SEM (hGPR17L-R248Q; [5]): 8.73 ± 2.2 | IC50 (hGPR17L-R248Q; [6]): 1.9 nM | cAMP Efficacy (% inhibition) (hGPR17L-R301H [2]; HEK293, 3 μM forskolin): 52 ± 5.2 % inhibition | cAMP 10 μM MDL +3 μM FSK (% of FSK) (hGPR17L-R301H [2]; HEK293, 10 μM MDL29,951): 72 ± 2.5 % of FSK | cAMP 100 μM MDL +3 μM FSK (% of FSK) (hGPR17L-R301H [2]; HEK293, 100 μM MDL29,951): 101 ± 2.9 % of FSK | cAMP pIC50 ± SEM (hGPR17L-R301H [2]; [5]): 8.00 ± 0.46 | IC50 (hGPR17L-R301H [2]; [6]): 10 nM | fold less potent for inhibition of forskolin-stimulated cAMP relative to hGPR17L-WT (hGPR17L-D105N): sixfold less potent | cAMP Efficacy (% inhibition) (hGPR17L-D105N; HEK293, 3 μM forskolin): 48 ± 4.7 % inhibition | cAMP 10 μM MDL +3 μM FSK (% of FSK) (hGPR17L-D105N; HEK293, 10 μM MDL29,951): 49 ± 7.3 % of FSK | cAMP 100 μM MDL +3 μM FSK (% of FSK) (hGPR17L-D105N; HEK293, 100 μM MDL29,951): 56 ± 10 % of FSK | cAMP pIC50 ± SEM (hGPR17L-D105N; [5]): 7.75 ± 0.25 | IC50 (hGPR17L-D105N; [6]): 18 nM | cAMP Efficacy (% inhibition) (hGPR17L-WT; HEK293, 3 μM forskolin): 47 ± 2.5 % inhibition | cAMP 10 μM MDL +3 μM FSK (% of FSK) (hGPR17L-WT; HEK293, 10 μM MDL29,951): 92 ± 4.4 % of FSK | cAMP 100 μM MDL +3 μM FSK (% of FSK) (hGPR17L-WT; HEK293, 100 μM MDL29,951): 115 ± 6.1 % of FSK | cAMP pIC50 ± SEM (hGPR17L-WT; [5]): 8.52 ± 0.13 | IC50 (hGPR17L-WT; [6]): 3 nM | cAMP Efficacy (% inhibition) (hGPR17L-G354V; HEK293, 3 μM forskolin): 42 ± 6.7 % inhibition | cAMP 10 μM MDL +3 μM FSK (% of FSK) (hGPR17L-G354V; HEK293, 10 μM MDL29,951): 91 ± 13 % of FSK | cAMP 100 μM MDL +3 μM FSK (% of FSK) (hGPR17L-G354V; HEK293, 100 μM MDL29,951): 113 ± 10 % of FSK | cAMP pIC50 ± SEM (hGPR17L-G354V; [5]): 8.34 ± 0.25 | IC50 (hGPR17L-G354V; [6]): 4.6 nM | cAMP Efficacy (% inhibition) (hGPR17L-V96M; HEK293, 3 μM forskolin): 36 ± 4.2 % inhibition | cAMP 10 μM MDL +3 μM FSK (% of FSK) (hGPR17L-V96M; HEK293, 10 μM MDL29,951): 60 ± 5.6 % of FSK | cAMP 100 μM MDL +3 μM FSK (% of FSK) (hGPR17L-V96M; HEK293, 100 μM MDL29,951): 65 ± 4.6 % of FSK | cAMP pIC50 ± SEM (hGPR17L-V96M; [5]): 8.77 ± 0.36 | IC50 (hGPR17L-V96M; [6]): 1.7 nM | cAMP Efficacy (% inhibition) (hGPR17L-A131T; HEK293, 3 μM forskolin): 44 ± 4.5 % inhibition | cAMP 10 μM MDL +3 μM FSK (% of FSK) (hGPR17L-A131T; HEK293, 10 μM MDL29,951): 77 ± 3.5 % of FSK | cAMP 100 μM MDL +3 μM FSK (% of FSK) (hGPR17L-A131T; HEK293, 100 μM MDL29,951): 109 ± 5.3 % of FSK | cAMP pIC50 ± SEM (hGPR17L-A131T; [5]): 8.31 ± 0.13 | IC50 (hGPR17L-A131T; [6]): 4.9 nM | cAMP Efficacy (% inhibition) (hGPR17L-F43L; HEK293, 3 μM forskolin): 44 ± 2.7 % inhibition | cAMP 10 μM MDL +3 μM FSK (% of FSK) (hGPR17L-F43L; HEK293, 10 μM MDL29,951): 107 ± 24 % of FSK | cAMP 100 μM MDL +3 μM FSK (% of FSK) (hGPR17L-F43L; HEK293, 100 μM MDL29,951): 145 ± 30 % of FSK | cAMP pIC50 ± SEM (hGPR17L-F43L; [5]): 8.81 ± 0.37 | IC50 (hGPR17L-F43L; [6]): 1.6 nM | Stimulatory cAMP pEC50 ± SEM (hGPR17L-V103M [3]): 4.33 ± 0.36 | loss of potency, fold shift in EC50 vs hGPR17L-WT (stimulatory cAMP) (hGPR17L-V103M [3]): 3–7 fold | Stimulatory cAMP Efficacy (% of WT Emax) (hGPR17L-V103M [3]; hGPR17L-V103M, HEK293, 100 ng/ml pertussis toxin overnight): 150 ± 48 % of WT Emax | EC50 (hGPR17L-V103M [3]; [7]): 47000 nM | Stimulatory cAMP pEC50 ± SEM (hGPR17L-R301H [4]): 4.84 ± 0.12 | Stimulatory cAMP Efficacy (% of WT Emax) (hGPR17L-R301H [4]; hGPR17L-R301H, HEK293, 100 ng/ml pertussis toxin overnight): 68 ± 11 % of WT Emax | EC50 (hGPR17L-R301H [4]; [7]): 16000 nM
